Data published in US9796704B2, “Substituted quinazolines as receptor-type kinase inhibitors” (Symphony Evolution, Inc., priority 2002, dated 2017).

Assays:
[1] = target: EphB4 (Homo sapiens (Human), UniProt P54760); assay: EphB4 kinase inhibition, 33P phosphoryl transfer assay (radiometric); type: biochemical
Procedure: Phosphorylated substrate products are quantified by scintillation spectrometry.
Kinase activity and compound inhibition are investigated using one or more of the three assay formats described below. The ATP concentrations are selected near its Michaelis-Menten constant (KM) for each individual kinase. Dose-response experiments are performed at ten different inhibitor concentrations in a 384-well plate format. […] These parameters are obtained by nonlinear regression algorithm built into ActivityBase software (available from ID Business Solutions Ltd., of Guildford, Surrey, UK). ^33P Phosphoryl Transfer Assay (Radiometric)
Greiner 384-well white clear bottom high binding plates (available from Greiner Bio-One, Inc., of Longwood, Fla.) are coated with 2 μg/well of protein or peptide substrate in a 50 μL volume overnight at ambient temperature. […] The coating solution is aspirated and the plates are washed once with 50 μL of assay buffer and padded dry. Subsequently compounds and enzymes are mixed with γ ^33P-ATP (3.3 μCi/nmol) in a total volume of 20 uL in suitable assay buffers (see Table 2). For example the final EphB4 reaction solution contains 20 mM TrisHCl, pH 7.5, 10 mM MgCl2, 0.01% Triton X-100, 0.1 mM NaVO3, 5 nM EphB4 enzyme and 5 μM ATP. […] The plates are subsequently washed 6-12 times with PBST or TBS buffer.

[2] = target: EGFR (Homo sapiens (Human), UniProt P00533); assay: EGFR kinase inhibition, luciferase-coupled chemiluminescent assay (LCCA); conditions: read-out: EGFR IC50
[3] = target: EphA2 (Homo sapiens (Human), UniProt P29317); assay: EphA2 kinase inhibition, luciferase-coupled chemiluminescent assay (LCCA); conditions: read-out: EphA2 IC50
Chain of EphA2 (P29317 598-890): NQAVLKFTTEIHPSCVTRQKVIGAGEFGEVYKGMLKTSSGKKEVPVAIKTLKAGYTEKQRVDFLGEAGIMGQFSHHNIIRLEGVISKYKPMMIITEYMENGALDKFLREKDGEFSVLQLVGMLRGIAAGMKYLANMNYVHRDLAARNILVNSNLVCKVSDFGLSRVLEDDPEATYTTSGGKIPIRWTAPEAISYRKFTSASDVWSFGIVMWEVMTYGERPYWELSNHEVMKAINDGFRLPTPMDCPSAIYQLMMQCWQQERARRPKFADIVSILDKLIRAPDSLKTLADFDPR

Chain of EGFR (P00533 672-1210): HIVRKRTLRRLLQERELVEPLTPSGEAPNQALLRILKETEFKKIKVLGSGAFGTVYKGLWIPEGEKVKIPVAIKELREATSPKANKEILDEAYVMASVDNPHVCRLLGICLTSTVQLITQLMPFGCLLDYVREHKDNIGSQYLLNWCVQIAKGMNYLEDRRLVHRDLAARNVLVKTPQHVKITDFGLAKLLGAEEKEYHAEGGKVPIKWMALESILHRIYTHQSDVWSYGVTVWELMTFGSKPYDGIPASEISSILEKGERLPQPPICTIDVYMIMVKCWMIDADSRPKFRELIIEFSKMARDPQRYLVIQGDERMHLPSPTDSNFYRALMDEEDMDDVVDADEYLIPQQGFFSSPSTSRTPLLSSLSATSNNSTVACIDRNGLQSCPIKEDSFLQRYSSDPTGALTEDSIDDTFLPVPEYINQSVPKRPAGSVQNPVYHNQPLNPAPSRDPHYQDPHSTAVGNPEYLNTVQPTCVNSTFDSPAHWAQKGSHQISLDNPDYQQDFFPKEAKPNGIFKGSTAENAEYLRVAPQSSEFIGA
Chain of EphB4 (P54760 605-890): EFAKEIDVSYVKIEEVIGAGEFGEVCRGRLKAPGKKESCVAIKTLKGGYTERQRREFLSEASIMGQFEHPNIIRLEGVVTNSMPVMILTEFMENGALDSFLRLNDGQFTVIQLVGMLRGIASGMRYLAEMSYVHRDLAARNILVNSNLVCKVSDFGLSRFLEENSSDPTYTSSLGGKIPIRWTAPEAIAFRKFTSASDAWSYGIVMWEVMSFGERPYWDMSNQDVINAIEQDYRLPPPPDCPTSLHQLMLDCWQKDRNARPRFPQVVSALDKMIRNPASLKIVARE

| Compound | IC50 [1] [nM] | IC50 [2] [nM] | IC50 [3] [nM] |
| --- | --- | --- | --- |
| COc1cc2c(Nc3ccc(Cl)c(Cl)c3)ncnc2cc1OCc1nc2c(s1)CNCC2 [Example 208, N-(3,4-dichlorophenyl)-6-(methyloxy)-7-[(4,5,6,7-tetrahydro[1,3]thiazolo[5,4-c]pyridin-2-ylmethyl)oxy]quinazolin-4-amine] | 50 to 1000 | < 50 | 50 to 1000 |
| COc1cc2c(Nc3ccc(Cl)c(Cl)c3)ncnc2cc1OCc1csc(C2CCNCC2)n1 [Example 213, N-(3,4-dichlorophenyl)-6-(methyloxy)-7-{[(2-piperidin-4-yl-1,3-thiazol-4-yl)methyl]oxy}quinazolin-4-amine] | < 50 | < 50 | 50 to 1000 |
| COc1cc2c(Nc3ccc(Cl)c(Cl)c3)ncnc2cc1OCc1csc(-c2ccc(Cl)cc2)n1 [Example 223, 7-({[2-(4-chlorophenyl)-1,3-thiazol-4-yl]methyl}oxy)-N-(3,4-dichlorophenyl)-6-(methyloxy)quinazolin-4-amine] | 50 to 1000 | < 50 | 50 to 1000 |
| COc1cc2c(Nc3ccc(Cl)c(Cl)c3)ncnc2cc1OCc1noc(-c2c(C)noc2C)n1 [Example 224, N-(3,4-dichlorophenyl)-7-({[5-(3,5-dimethylisoxazol-4-yl)-1,2,4-oxadiazol-3-yl]methyl}oxy)-6-(methyloxy)quinazolin-4-amine] | 50 to 1000 | < 50 | 50 to 1000 |
| COc1cc2c(Nc3ccc(Cl)c(Cl)c3)ncnc2cc1OCc1csc2ccc(Cl)cc12 [Example 225, 7-{[(5-chloro-1-benzothien-3-yl)methyl]oxy}-N-(3,4-dichlorophenyl)-6-(methyloxy)quinazolin-4-amine] | 1000 to 20000 | < 50 | 1000 to 20000 |
| COc1cc2c(Nc3ccc(Cl)c(Cl)c3)ncnc2cc1OCc1noc(-c2ccccc2OC)n1 [Example 227, N-(3,4-dichlorophenyl)-6-(methyloxy)-7-[({5-[2-(methyloxy)phenyl]-1,2,4-oxadiazol-3-yl}methyl)oxy]quinazolin-4-amine] | < 50 | < 50 | 50 to 1000 |
| COc1cc2c(Nc3ccc(Cl)c(Cl)c3)ncnc2cc1OCc1nnc(-c2ccc(C)cc2)o1 [Example 228, N-(3,4-dichlorophenyl)-6-(methyloxy)-7-({[5-(4-methylphenyl)-1,3,4-oxadiazol-2-yl]methyl}oxy)quinazolin-4-amine] | < 50 | < 50 | 50 to 1000 |
| COc1cc2c(Nc3ccc(Cl)c(Cl)c3)ncnc2cc1OCc1nccn1Cc1ccccc1 [Example 229, N-(3,4-dichlorophenyl)-6-(methyloxy)-7-({[1-(phenylmethyl)-lH-imidazol-2-yl]methyl}oxy)quinazolin-4-amine] | 50 to 1000 | < 50 | 1000 to 20000 |
| COc1cc2c(Nc3ccc(Cl)c(Cl)c3)ncnc2cc1OCc1csc(N(C)C)n1 [Example 240, N-(3,4-dichlorophenyl)-7-({[2-(dimethylamino)-1,3-thiazol-4-yl]methyl}oxy)-6-(methyloxy)quinazolin-4-amine] | < 50 | < 50 | 50 to 1000 |
| COc1cc2c(Nc3ccc(Cl)c(Cl)c3)ncnc2cc1OCc1csc(CO)n1 [Example 246, [4-({[4-[(3,4-dichlorophenyl)amino]-6-(methyloxy)quinazolin-7-yl]oxy}methyl)-1,3-thiazol-2-yl]methanol] | < 50 | < 50 | < 50 |
| COc1cc2c(Nc3ccc(Cl)c(Cl)c3)ncnc2cc1OCc1csc([C@@H]2CSCN2)n1 [Example 248, N-(3,4-dichlorophenyl)-6-(methyloxy)-7-[({2-[(4S)-1,3-thiazolidin-4-yl]-1,3-thiazol-4-yl}methyl)oxy]quinazolin-4-amine] | 50 to 1000 | < 50 | 50 to 1000 |
| COc1cc2c(Nc3ccc(Cl)c(Cl)c3)ncnc2cc1OCc1csc(C2CCCCN2)n1 (stereo not drawn) [Example 249, N-(3,4-dichlorophenyl)-6-(methyloxy)-7-{[(2-piperidin-2-yl-1,3-thiazol-4-yl)methyl]oxy}quinazolin-4-amine] | 50 to 1000 | < 50 | 50 to 1000 |
| COc1cc2c(Nc3ccc(Cl)c(Cl)c3)ncnc2cc1OCc1csc(C2CCCCN2C)n1 (stereo not drawn) [Example 250, N-(3,4-dichlorophenyl)-6-(methyloxy)-7-({[2-(1-methylpiperidin-2-yl)-1,3-thiazol-4-yl]methyl}oxy)quinazolin-4-amine] | 50 to 1000 | < 50 | 50 to 1000 |
| COc1cc2c(Nc3ccc(Cl)c(Cl)c3)ncnc2cc1OCc1csc(C2CCCNC2)n1 (stereo not drawn) [Example 251, N-(3,4-dichlorophenyl)-6-(methyloxy)-7-{[(2-piperidin-3-yl-1,3-thiazol-4-yl)methyl]oxy}quinazolin-4-amine] | 50 to 1000 | < 50 | 1000 to 20000 |
| COCCN1CCCOC(COc2cc3ncnc(Nc4ccc(Cl)c(Cl)c4)c3cc2OC)C1 (stereo not drawn) [Example 260, N-(3,4-dichlorophenyl)-6-(methyloxy)-7-[({4-[2-(methyloxy)ethyl]-1,4-oxazepan-2-yl}methyl)oxy]quinazolin-4-amine] | 50 to 1000 | < 50 | 1000 to 20000 |
| COc1cc2c(Nc3ccc(Cl)c(Cl)c3)ncnc2cc1OCC1CN(C(C)C)CCCO1 (stereo not drawn) [Example 261, N-(3,4-dichlorophenyl)-7-({[4-(1-methylethyl)-1,4-oxazepan-2-yl]methyl}oxy)-6-(methyloxy)quinazolin-4-amine] | 50 to 1000 | < 50 | 1000 to 20000 |

Further lines, results first:

| IC50 [1] [nM] | IC50 [2] [nM] | IC50 [3] [nM] | Compound |
| --- | --- | --- | --- |
| 50 to 1000 | < 50 | 50 to 1000 | COc1cc2c(Nc3ccc(Cl)c(Cl)c3)ncnc2cc1OCc1nc(N(C)C)no1 [Example 206, N-(3,4-dichlorophenyl)-7-({[3-(dimethylamino)-1,2,4-oxadiazol-5-yl]methyl}oxy)-6-(methyloxy)quinazolin-4-amine] |
| < 50 | < 50 | 50 to 1000 | COc1cc2c(Nc3ccc(Cl)c(Cl)c3)ncnc2cc1OCc1nc(CN2CCOCC2)cs1 [Example 209, N-(3,4-dichlorophenyl)-6-(methyloxy)-7-({[4-(morpholin-4-ylmethyl)-1,3-thiazol-2-yl]methyl}oxy)quinazolin-4-amine] |
| 50 to 1000 | < 50 | 50 to 1000 | CCN1CCOC(COc2cc3ncnc(Nc4ccc(Cl)c(Cl)c4)c3cc2OC)C1 (stereo not drawn) [Example 212, N-(3,4-dichlorophenyl)-7-{[(4-ethylmorpholin-2-yl)methyl]oxy}-6-(methyloxy)quinazolin-4-amine] |
| < 50 | < 50 | 50 to 1000 | COc1cc2c(Nc3ccc(Cl)c(Cl)c3)ncnc2cc1OCc1csc(C2CCN(C)CC2)n1 [Example 214, N-(3,4-dichlorophenyl)-6-(methyloxy)-7-({[2-(1-methylpiperidin-4-yl)-1,3-thiazol-4-yl]methyl}oxy)quinazolin-4-amine] |
| 50 to 1000 | < 50 | 50 to 1000 | CCN1CCCCC1c1nc(COc2cc3ncnc(Nc4ccc(Cl)c(Cl)c4)c3cc2OC)no1 (stereo not drawn) [Example 219, N-(3,4-dichlorophenyl)-7-({[5-(1-ethylpiperidin-2-yl)-1,2,4-oxadiazol-3-yl]methyl}oxy)-6-(methyloxy)quinazolin-4-amine] |
| 50 to 1000 | < 50 | 50 to 1000 | CCN1CCN(c2noc(COc3cc4ncnc(Nc5ccc(Cl)c(Cl)c5)c4cc3OC)n2)CC1 [Example 220, N-(3,4-dichlorophenyl)-7-({[3-(4-ethylpiperazin-1-yl)-1,2,4-oxadiazol-5-yl]methyl}oxy)-6-(methyloxy)quinazolin-4-amine] |
| < 50 | < 50 | < 50 | CCN1CCCOC(COc2cc3ncnc(Nc4ccc(Cl)c(Cl)c4)c3cc2OC)C1 (stereo not drawn) [Example 241, N-(3,4-dichlorophenyl)-7-{[(4-ethyl-1,4-oxazepan-2-yl)methyl]oxy}-6-(methyloxy)quinazolin-4-amine] |
| 1000 to 20000 | < 50 | 1000 to 20000 | CCN1CCCCC1c1nc(COc2cc3ncnc(Nc4ccc(Cl)c(Cl)c4)c3cc2OC)cs1 (stereo not drawn) [Example 253, N-(3,4-dichlorophenyl)-7-({[2-(1-ethylpiperidin-2-yl)-1,3-thiazol-4-yl]methyl}oxy)-6-(methyloxy)quinazolin-4-amine] |
| 50 to 1000 | < 50 | 1000 to 20000 | CCN1CCCC(c2nc(COc3cc4ncnc(Nc5ccc(Cl)c(Cl)c5)c4cc3OC)cs2)C1 (stereo not drawn) [Example 254, N-(3,4-dichlorophenyl)-7-({[2-(1-ethylpiperidin-3-yl)-1,3-thiazol-4-yl]methyl}oxy)-6-(methyloxy)quinazolin-4-amine] |
| 50 to 1000 | < 50 | 1000 to 20000 | COc1cc2c(Nc3ccc(Cl)c(Cl)c3)ncnc2cc1OCc1csc(N2CCNCC2)n1 [Example 262, N-(3,4-dichlorophenyl)-6-(methyloxy)-7-{[(2-piperazin-1-yl-1,3-thiazol-4-yl)methyl]oxy}quinazolin-4-amine] |
